The nature of one data set: Solubility determination. As to conditions: for Sol6: pH 6; for Sol7: pH 7. In a few lines:
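Sample: TFA-salt peptide at 10 mg/ml target in 0.1 M Na diphosphate, pH 6.4 or 7.0, shaken 2 h RT, filtered, diluted to 1 mg/ml.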

Data set [1] has as its target T1, Human Neuropeptide Y2 Receptor (Homo sapiens, UniProt P49146).
T1 construct: purchased CHEMICON HTS066M
T1 sequence (P49146 1-381): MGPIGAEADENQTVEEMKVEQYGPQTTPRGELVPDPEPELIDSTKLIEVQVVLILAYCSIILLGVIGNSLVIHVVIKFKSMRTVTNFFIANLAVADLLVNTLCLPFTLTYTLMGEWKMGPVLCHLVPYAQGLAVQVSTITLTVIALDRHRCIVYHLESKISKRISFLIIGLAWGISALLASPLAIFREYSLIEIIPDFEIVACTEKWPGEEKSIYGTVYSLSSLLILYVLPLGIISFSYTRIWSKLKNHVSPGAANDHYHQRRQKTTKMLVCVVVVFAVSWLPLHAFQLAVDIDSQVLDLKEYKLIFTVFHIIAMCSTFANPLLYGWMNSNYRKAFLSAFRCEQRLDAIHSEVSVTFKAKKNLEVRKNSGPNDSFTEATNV
The experiment in a line: Radioligand binding competition assay (RLB). As to conditions: Table 3, 125I-PYY(1-36) competition; read-out: Ki. In a few lines:
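Receptor membranes, 0.5 μg/well; buffer 50 mM HEPES/5 mM MgCl2/1 mM CaCl2/0.2% ovalbumin, pH 7.4; 2 h RT, shaking. GF/C filtration, cold HEPES/500 mM NaCl wash, scintillation count. IC50 by nonlinear regression.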

pKi: −log10 of the molar value. *1 amine or outer side, *2 acyl side, *3 side chain or, on linkers, in order; H or OH if unused. Where a SMILES comes first, the peptide text is derived from it. Side-chain parts run from the residue outwards. The star is where a group is joined. C18 diacid = O=C(O)CCCCCCCCCCCCCCCCC(=O)*; γGlu = O=C(O)[C@H](CCC(=O)[*:2])N[*:1]; Isovaleryl = CC(C)CC(=O)*; Ahx = NCCCCCC(=O)O

What is called pKi is the negative decadic logarithm of the Ki, by convention in mol/L.

On to `CC(C)CC(=O)N[C@@H](C)C(=O)N1CCC[C@H]1C(=O)N[C@@H](CCC(=O)O)C(=O)N[C@@H](CCCCNC(=O)CCCCCNC(=O)CC[C@H](NC(=O)CCCCCCCCCCCCCCCCC(=O)O)C(=O)O)C(=O)N1CCC[C@H]1C(=O)N[C@@H](CCC(=O)O)C(=O)N[C@@H](CCC(=O)O)C(=O)N[C@@H](CC(=O)O)C(=O)N[C@@H](C)C(=O)N[C@H](C(=O)N1CCC[C@H]1C(=O)N[C@@H](CCC(=O)O)C(=O)N[C@@H](CCC(=O)O)C(=O)N1CCC[C@H]1C(=O)N[C@@H](CCC(N)=O)C(=O)N[C@@H](CCCNC(=N)N)C(=O)N[C@@H](Cc1ccc(O)cc1)C(=O)N[C@@H](Cc1ccc(O)cc1)C(=O)N[C@H](C(=O)N[C@@H](CO)C(=O)N[C@@H](CC(C)C)C(=O)N[C@@H](CCCNC(=N)N)C(=O)N[C@@H](Cc1c[nH]cn1)C(=O)N[C@@H](Cc1ccc(O)cc1)C(=O)N[C@@H](Cc1ccc(O)cc1)C(=O)N[C@@H](CC(N)=O)C(=O)N[C@@H](Cc1c[nH]c2ccccc12)C(=O)N[C@@H](CC(C)C)C(=O)N[C@H](C(=O)N[C@@H](CCCNC(=N)N)C(=O)N[C@@H](CCC(N)=O)C(=O)N[C@@H](CCCNC(=N)N)C(=O)N[C@@H](Cc1ccc(O)cc1)C(N)=O)[C@@H](C)O)C(C)C)[C@@H](C)O` [Compound 187, N{alpha-4}-(3-methylbutanoyl)-N{epsilon-7}-(6-[(4S)-4-carboxy-4-(17-carboxyheptadecanamido)butanamido]hexanoyl)-[4A,7K,9E,13T,17P,18Q,22V,28Y,30W,31L]-hPYY(4-36)], for which, in the data set “Solubility determination”, the “Sol6” value was 7.8 mg/mL and the “Sol7” value was >10.0 mg/mL. Further, the pKi in data set [1] is 7.81.
For the compound `CC(C)CC(=O)N[C@@H](C)C(=O)N1CCC[C@H]1C(=O)N[C@@H](CCC(=O)O)C(=O)N[C@@H](CCCCNC(=O)CCCCCNC(=O)CC[C@H](NC(=O)CCCCCCCCCCCCCCCCC(=O)O)C(=O)O)C(=O)N1CCC[C@H]1C(=O)N[C@@H](CCC(=O)O)C(=O)N[C@@H](CCC(=O)O)C(=O)N[C@@H](CC(=O)O)C(=O)N[C@@H](CO)C(=O)N[C@@H](CO)C(=O)N1CCC[C@H]1C(=O)N[C@@H](CCC(=O)O)C(=O)N[C@@H](CCC(=O)O)C(=O)N[C@@H](CC(C)C)C(=O)N[C@@H](CCC(N)=O)C(=O)N[C@@H](CCCNC(=N)N)C(=O)N[C@@H](Cc1ccc(O)cc1)C(=O)N[C@@H](Cc1ccc(O)cc1)C(=O)N[C@H](C(=O)N[C@@H](C)C(=O)N[C@@H](CC(C)C)C(=O)N[C@@H](CCCNC(=N)N)C(=O)N[C@@H](Cc1c[nH]cn1)C(=O)N[C@@H](Cc1ccc(O)cc1)C(=O)N[C@@H](Cc1ccc(O)cc1)C(=O)N[C@@H](CC(N)=O)C(=O)N[C@@H](Cc1c[nH]c2ccccc12)C(=O)N[C@@H](CC(C)C)C(=O)N[C@H](C(=O)N[C@@H](CCCNC(=N)N)C(=O)N[C@@H](CCC(N)=O)C(=O)N[C@@H](CCCNC(=N)N)C(=O)N[C@@H](Cc1ccc(O)cc1)C(N)=O)[C@@H](C)O)C(C)C` [Compound 151, N{alpha-4}-(3-methylbutanoyl)-N{epsilon-7}-(6-[(4S)-4-carboxy-4-(17-carboxyheptadecanamido)butanamido]hexanoyl)-[4A,7K,9E,12S,18Q,22V,23A,28Y,30W,31L]-hPYY(4-36)], in “Solubility determination”, the “Sol6” value was determined as 8.2 mg/mL and the “Sol7” value came out at 9.7 mg/mL. For the same compound, the pKi in data set [1] is 8.77.
As to `CC(C)CC(=O)N[C@@H](C)C(=O)N1CCC[C@H]1C(=O)N[C@@H](CCC(=O)O)C(=O)N[C@@H](CCCCNC(=O)CCCCCNC(=O)CC[C@H](NC(=O)CCCCCCCCCCCCCCCCC(=O)O)C(=O)O)C(=O)N1CCC[C@H]1C(=O)N[C@@H](CCC(=O)O)C(=O)N[C@@H](CCC(=O)O)C(=O)N[C@@H](CCC(=O)O)C(=O)N[C@@H](C)C(=O)N[C@@H](CO)C(=O)N1CCC[C@H]1C(=O)N[C@@H](C)C(=O)N[C@@H](CCC(=O)O)C(=O)N[C@@H](CC(C)C)C(=O)N[C@@H](CCC(N)=O)C(=O)N[C@@H](CCCNC(=N)N)C(=O)N[C@@H](Cc1ccc(O)cc1)C(=O)N[C@@H](Cc1ccc(O)cc1)C(=O)N[C@H](C(=O)N[C@@H](CO)C(=O)N[C@@H](CC(C)C)C(=O)N[C@@H](CCCNC(=N)N)C(=O)N[C@@H](Cc1c[nH]cn1)C(=O)N[C@@H](Cc1ccc(O)cc1)C(=O)N[C@@H](Cc1ccc(O)cc1)C(=O)N[C@@H](CC(N)=O)C(=O)N[C@@H](Cc1c[nH]c2ccccc12)C(=O)N[C@@H](CC(C)C)C(=O)N[C@H](C(=O)N[C@@H](CCCNC(=N)N)C(=O)N[C@@H](CCC(N)=O)C(=O)N[C@@H](CCCNC(=N)N)C(=O)N[C@@H](Cc1ccc(O)cc1)C(N)=O)[C@@H](C)O)C(C)C` [Compound 139, N{alpha-4}-(3-methylbutanoyl)-N{epsilon-7}-(6-[(4S)-4-carboxy-4-(17-carboxyheptadecanamido)butanamido]hexanoyl)-[4A,7K,9E,11E,15A,18Q,22V,28Y,30W,31L]-hPYY(4-36)] (Isovaleryl-APEK([Ahx-γGlu-C18 diacid])PEEEASPAELQRYYVSLRHYYNWLTRQRY-NH2), in “Solubility determination”, the “Sol6” value came to 7.3 mg/mL and the “Sol7” value was determined as 8.8 mg/mL. The pKi in data set [1] was 8.44.
On to `CC[C@H](C)[C@H](NC(=O)[C@H](CCC(=O)O)NC(=O)[C@H](CCC(=O)O)NC(=O)[C@@H]1CCCN1C(=O)[C@@H](NC(=O)[C@H](C)NC(=O)[C@H](CC(=O)O)NC(=O)[C@H](CCC(=O)O)NC(=O)[C@H](CCC(=O)O)NC(=O)[C@@H]1CCCN1C(=O)[C@H](CCCCNC(=O)CCCCCNC(=O)CC[C@H](NC(=O)CCCCCCCCCCCCCCCCC(=O)O)C(=O)O)NC(=O)[C@H](CCC(=O)O)NC(=O)[C@@H]1CCCN1C(=O)[C@H](C)NC(=O)CC(C)C)[C@@H](C)O)C(=O)N[C@@H](CCC(N)=O)C(=O)N[C@@H](CCCNC(=N)N)C(=O)N[C@@H](Cc1ccc(O)cc1)C(=O)N[C@@H](Cc1ccc(O)cc1)C(=O)N[C@@H](CCC(N)=O)C(=O)N[C@@H](CO)C(=O)N[C@@H](CC(C)C)C(=O)N[C@@H](CCCNC(=N)N)C(=O)N[C@@H](Cc1c[nH]cn1)C(=O)N[C@@H](Cc1ccc(O)cc1)C(=O)N[C@@H](Cc1ccc(O)cc1)C(=O)N[C@@H](CC(N)=O)C(=O)N[C@@H](Cc1c[nH]c2ccccc12)C(=O)N[C@@H](CC(C)C)C(=O)N[C@H](C(=O)N[C@@H](CCCNC(=N)N)C(=O)N[C@@H](CCC(N)=O)C(=O)N[C@@H](CCCNC(=N)N)C(=O)N[C@@H](Cc1ccc(O)cc1)C(N)=O)[C@@H](C)O` [Compound 164, N{alpha-4}-(3-methylbutanoyl)-N{epsilon-7}-(6-[(4S)-4-carboxy-4-(17-carboxyheptadecanamido)butanamido]hexanoyl)-[4A,7K,9E,13T,17I,18Q,22Q,28Y,30W,31L]-hPYY(4-36)], for which, in “Solubility determination”, the “Sol6” value was found to be 9.3 mg/mL and the “Sol7” value worked out at 9.2 mg/mL. For the same compound, the pKi in data set [1] was 8.55.

For the origin of these results see US12391737B2, “Soluble NPY2 receptor agonists” (Boehringer Ingelheim International GmbH, priority 2020, dated 2025).
